In patent US9169254B2, “Spiroimidazolone derivative” (Chugai Seiyaku Kabushiki Kaisha, priority 2009, dated 2015):

Each molecule was assayed against T1, human PTH1 receptor (Homo sapiens, UniProt Q03431) (assay: In vitro cAMP signal activity in HKRK-B7 cells (LLC-PK1 cells overexpressing the human PTH1 receptor)). Conditions: HKRK-B7 cells; compound at 1×10^−3 M; cAMP produced as percentage of that produced by hPTH(1-34) at 100 nM.
T1 sequence (Q03431 27-593): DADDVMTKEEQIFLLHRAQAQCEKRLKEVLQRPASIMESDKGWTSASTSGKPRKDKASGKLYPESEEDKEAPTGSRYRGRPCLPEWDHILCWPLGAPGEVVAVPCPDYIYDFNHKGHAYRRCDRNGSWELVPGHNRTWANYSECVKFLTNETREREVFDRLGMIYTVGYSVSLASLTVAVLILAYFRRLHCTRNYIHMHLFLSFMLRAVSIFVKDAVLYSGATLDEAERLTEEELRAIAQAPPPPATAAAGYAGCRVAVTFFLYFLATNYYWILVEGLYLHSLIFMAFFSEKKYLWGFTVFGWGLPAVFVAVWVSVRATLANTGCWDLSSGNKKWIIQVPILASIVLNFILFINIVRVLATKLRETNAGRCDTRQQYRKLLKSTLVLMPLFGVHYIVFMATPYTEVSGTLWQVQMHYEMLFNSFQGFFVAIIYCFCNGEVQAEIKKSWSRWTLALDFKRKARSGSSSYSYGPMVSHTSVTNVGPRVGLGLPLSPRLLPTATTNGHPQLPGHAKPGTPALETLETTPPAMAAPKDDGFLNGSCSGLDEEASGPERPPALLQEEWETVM
Assay type: cell-based

SMILES | cAMP production activity (%)
Cc1cc(N2CCOCC2=O)cc(C)c1CCS(=O)(=O)N1CCC2(CC1)N=C(C1CCC(CCC(F)(F)F)CC1)NC2=O (stereo not drawn) [Compound 764, 8-{2-[2,6-dimethyl-4-(3-oxo-morpholin-4-yl)-phenyl]-ethanesulfonyl}-2-[4-(3,3,3-trifluoro-propyl)-cyclohexyl]-1,3,8-triaza-spiro[4.5]dec-1-en-4-one] | 124
Cc1cc(N(C)C(N)=O)cc(C)c1CCS(=O)(=O)N1CCC2(CC1)N=C(C1CCC(CC(F)(F)C(F)(F)F)CC1)NC2=O (stereo not drawn) [Compound 1042, 1-[3,5-dimethyl-4-(2-{4-oxo-2-[4-(2,2,3,3,3-pentafluoro-propyl)-cyclohexyl]-1,3,8-triaza-spiro[4.5]dec-1-ene-8-sulfonyl}-ethyl)-phenyl]-1-methyl-urea] | 102
CC(=O)N[C@@H]1CCN(C(=O)c2ccc(CCS(=O)(=O)N3CCC4(CC3)N=C(c3cccc(C(F)(F)F)c3)NC4=O)c(C)c2)C1 [Compound 353, N—[(R)-1-(3-methyl-4-{2-[4-oxo-2-(3-trifluoromethyl-phenyl)-1,3,8-triaza-spiro[4.5]dec-1-ene-8-sulfonyl]-ethyl}-benzoyl)-pyrrolidin-3-yl]-acetamide] | 120
Cc1cc(C(=O)N(C)C)ccc1CCS(=O)(=O)N1CCC2(CC1)N=C(c1ccc(C(F)(F)F)cc1F)NC2=O [Compound 139, 4-{2-[2-(2-fluoro-4-trifluoromethyl-phenyl)-4-oxo-1,3,8-triaza-spiro[4.5]dec-1-ene-8-sulfonyl]-ethyl}-3,N,N-trimethyl-benzamide] | 64
Cc1cc(C(=O)N2CCC(C)(O)CC2)cc(C)c1/C=C/S(=O)(=O)N1CCC2(CC1)N=C(c1ccc(F)c(C(F)F)c1)NC2=O [Compound 1217, 2-(3-difluoromethyl-4-fluoro-phenyl)-8-{(E)-2-[4-(4-hydroxy-4-methyl-piperidine-1-carbonyl)-2,6-dimethyl-phenyl]-ethenesulfonyl}-1,3,8-triaza-spiro[4.5]dec-1-en-4-one] | 68
CC(=O)Nc1ccc(CCS(=O)(=O)N2CCC3(CC2)N=C(C2CCC(C)CC2)NC3=O)c(C)c1 (stereo not drawn) [Compound 148, N-(3-methyl-4-{2-[2-(4-methyl-cyclohexyl)-4-oxo-1,3,8-triaza-spiro[4.5]dec-1-ene-8-sulfonyl]-ethyl}-phenyl)-acetamide] | 79
CC1CCC(C2=NC3(CCN(S(=O)(=O)/C=C/c4cccc(C#N)c4)CC3)C(=O)N2)CC1 (stereo not drawn) [Compound 209, 3-{(E)-2-[2-(4-Methyl-cyclohexyl)-4-oxo-1,3,8-triaza-spiro[4.5]dec-1-ene-8-sulfonyl]-vinyl}-benzonitrile] | 24
O=C1NC(c2cccc(OC(F)(F)F)c2)=NC12CCN(S(=O)(=O)CCc1cccc3ncccc13)CC2 [Compound 654, 8-(2-quinolin-5-yl-ethanesulfonyl)-2-(3-trifluoromethoxy-phenyl)-1,3,8-triaza-spiro[4.5]dec-1-en-4-one] | 50
CC(=O)N(CCO)c1ccc(C)c(/C=C/S(=O)(=O)N2CCC3(CC2)N=C(c2cccc(OC(F)(F)F)c2)NC3=O)c1 [Compound 257, N-(2-hydroxy-ethyl)-N-(4-methyl-3-{(E)-2-[4-oxo-2-(3-trifluoromethoxy-phenyl)-1,3,8-triaza-spiro[4.5]dec-1-ene-8-sulfonyl]-vinyl}-phenyl)-acetamide] | 42
Cc1cc2ccc1CCS(=O)(=O)N1CCC3(CC1)N=C(NC3=O)c1cc(cc(C(F)(F)F)c1)OCC/C=C\CCCCCN(C)C2=O [Compound 1414] | 47
[2H]C([2H])([2H])C([2H])(Oc1cc(C2=NC3(CCN(S(=O)(=O)/C=C/c4c(C)cc(C(=O)N5CCC(C)(O)CC5)cc4C)CC3)C(=O)N2)ccc1F)C([2H])([2H])[2H] [Compound 1225, 2-(4-fluoro-3-[1,2,2,2,2,2,2-^2H7]isopropoxy-phenyl)-8-{(E)-2-[4-(4-hydroxy-4-methyl-piperidine-1-carbonyl)-2,6-dimethyl-phenyl]-ethenesulfonyl}-1,3,8-triaza-spiro[4.5]dec-1-en-4-one] | 90
CCOCc1cc(NC(C)=O)ccc1CCS(=O)(=O)N1CCC2(CC1)N=C(C1CCC(C)CC1)NC2=O (stereo not drawn) [Compound 753, N-(3-ethoxymethyl-4-{2-[2-(4-methyl-cyclohexyl)-4-oxo-1,3,8-triaza-spiro[4.5]dec-1-ene-8-sulfonyl]-ethyl}-phenyl)-acetamide] | 104
Cc1cc(C(=O)N(C)C)ccc1CCS(=O)(=O)N1CCC2(CC1)N=C(CCC1CCCCC1)NC2=O [Compound 108, 4-{2-[2-(2-cyclohexyl-ethyl)-4-oxo-1,3,8-triaza-spiro[4.5]dec-1-ene-8-sulfonyl]-ethyl}-3,N,N-trimethyl-benzamide] | 62
COc1cc(C2=NC3(CCN(S(=O)(=O)CCc4ccc(C(=O)N(C)C)cc4C)CC3)C(=O)N2)ccn1 [Compound 119, 4-{2-[2-(2-methoxy-pyridin-4-yl)-4-oxo-1,3,8-triaza-spiro[4.5]dec-1-ene-8-sulfonyl]-ethyl}-3,N,N-trimethyl-benzamide] | 60
Cc1cc(C(=O)N2CCC(C)(O)CC2)cc(C)c1/C=C/S(=O)(=O)N1CCC2(CC1)N=C(c1cccc(OC(F)(F)C(F)F)c1)NC2=O [Compound 1100, 8-{(E)-2-[4-(4-Hydroxy-4-methyl-piperidine-1-carbonyl)-2,6-dimethyl-phenyl]-ethenesulfonyl}-2-[3-(1,1,2,2-tetrafluoro-ethoxy)-phenyl]-1,3,8-triaza-spiro[4.5]dec-1-en-4-one] | 76
Cc1cc(C(=O)N2CCC(O)(CF)CC2)cc(C)c1CCS(=O)(=O)N1CCC2(CC1)N=C(C1CCC(CCC(F)(F)F)CC1)NC2=O (stereo not drawn) [Compound 1381, 8-{2-[4-(4-fluoromethyl-4-hydroxy-piperidine-1-carbonyl)-2,6-dimethyl-phenyl]-ethanesulfonyl}-2-[4-(3,3,3-trifluoro-propyl)-cyclohexyl]-1,3,8-triaza-spiro[4.5]dec-1-en-4-one] | 102
Cc1cc(C(=O)N2CCN(C(C)(C)C)CC2)ccc1CCS(=O)(=O)N1CCC2(CC1)N=C(c1cccc(C(F)(F)F)c1)NC2=O [Compound 373, 8-{2-[4-(4-tert-butyl-piperazine-1-carbonyl)-2-methyl-phenyl]-ethanesulfonyl}-2-(3-trifluoromethyl-phenyl)-1,3,8-triaza-spiro[4.5]dec-1-en-4-one] | 70
Cc1cc(N(C)C(N)=O)cc(C)c1CCS(=O)(=O)N1CCC2(CC1)N=C(CCCCCCCCCC(N)=O)NC2=O [Compound 1363, 10-(8-{2-[2,6-dimethyl-4-(1-methyl-ureido)-phenyl]-ethanesulfonyl}-4-oxo-1,3,8-triaza-spiro[4.5]dec-1-en-2-yl)-decanoic acid amide] | 80
CC(=O)N(C)c1cc(C)c(/C=C/S(=O)(=O)N2CCC3(CC2)N=C(C2CCC(CCC(F)(F)F)CC2)NC3=O)c(C)c1 (stereo not drawn) [Compound 546, N-[3,5-dimethyl-4-((E)-2-{4-oxo-2-[4-(3,3,3-trifluoro-propyl)-cyclohexyl]-1,3,8-triaza-spiro[4.5]dec-1-ene-8-sulfonyl}-vinyl)-phenyl]-N-methyl-acetamide] | 75
Cc1cc(N(C)C(N)=O)cc(C)c1/C=C/S(=O)(=O)N1CCC2(CC1)N=C(CCCCCCCC(F)(F)C(F)(F)F)NC2=O [Compound 1303, 1-(3,5-dimethyl-4-{(E)-2-[4-oxo-2-(8,8,9,9,9-pentafluoro-nonyl)-1,3,8-triaza-spiro[4.5]dec-1-ene-8-sulfonyl]-vinyl}-phenyl)-1-methyl-urea] | 102
CCCCCCCCCC1=NC2(CCN(S(=O)(=O)CCc3c(C)cc(C(=O)N4CCN(C)CC4)cc3C)CC2)C(=O)N1 [Compound 986, 8-{2-[2,6-dimethyl-4-(4-methyl-piperazine-1-carbonyl)-phenyl]-ethanesulfonyl}-2-nonyl-1,3,8-triaza-spiro[4.5]dec-1-en-4-one] | 96
Cc1cc(OC[C@H](O)CO)cc(C)c1CCS(=O)(=O)N1CCC2(CC1)N=C(c1ccc3c(c1)OC(F)(F)O3)NC2=O [Compound 1330, 2-(2,2-difluoro-benzo[1,3]dioxol-5-yl)-8-{2-[4-((R)-2,3-dihydroxy-propoxy)-2,6-dimethyl-phenyl]-ethanesulfonyl}-1,3,8-triaza-spiro[4.5]dec-1-en-4-one] | 9.2
CCC[S+]([O-])CCCCCC1=NC2(CCN(S(=O)(=O)/C=C/c3c(C)cc(N(C)C(N)=O)cc3C)CC2)C(=O)N1 (stereo not drawn) [Compound 1316, 1-[3,5-Dimethyl-4-((E)-2-{4-oxo-2-[5-(propane-1-sulfinyl)-pentyl]-1,3,8-triaza-spiro[4.5]dec-1-ene-8-sulfonyl}-vinyl)-phenyl]-1-methyl-urea] | 2.9
CC(=O)Nc1ccc(CCS(=O)(=O)N2CCC3(CC2)N=C([C@H]2CC[C@@H](CC(F)(F)C(F)(F)F)CC2)NC3=O)c(C)c1 [Compound 1069, N-[3-methyl-4-(2-{4-oxo-2-[4-(2,2,3,3,3-pentafluoro-propyl)-cyclohexyl]-1,3,8-triaza-spiro[4.5]dec-1-ene-8-sulfonyl}-ethyl)-phenyl]-acetamide] | 79
